Read-outs that look alike come from different tables or passages of the source.
What was measured:
Assay type in all cases: cell-based
[1] = system: Pseudomonas aeruginosa 5646; assay: In vitro activity (MIC), agar dilution test
Excerpt: (§1) In the following Table there are presented for the composition in accordance with the invention the minimum inhibitory concentrations (MIC values in μ/ml) determined in in vitro comparative tests in the case of various infections with pathogenic microorganisms.
(§2) In vitro activity of compound A and mecillinam (MEC) against various
(§3) of bacteria (MIC μg/ml) Method: Agar dilution test with DST agar

Enterobacter cloacae 5 = assay: In vitro activity (MIC), agar dilution test
Excerpt: as §1, §2, §3

Enterobacter cloacae 908 = assay: In vitro activity (MIC), agar dilution test
Excerpt: as §1, §2, §3

[2] = system: Enterobacter cloacae MK 1617; assay: In vitro activity (MIC), agar dilution test
Excerpt: as §1, §2, §3

[3] = system: Citrobacter freundii 1982; assay: In vitro activity (MIC), agar dilution test
Excerpt: as §1, §2, §3

[4] = system: Enterobacter cloacae MK 373; assay: In vitro activity (MIC), agar dilution test; settings: MK373
Excerpt: as §1, §2, §3

[5] = system: Pseudomonas aeruginosa 143724 R; assay: In vitro activity (MIC), agar dilution test
Excerpt: as §1, §2, §3

[6] = system: Pseudomonas aeruginosa 1920 E; assay: In vitro activity (MIC), agar dilution test
Excerpt: as §1, §2, §3

[7] = system: Enterobacter agglomerans 960; assay: In vitro activity (MIC), agar dilution test; settings: Pantoea agglomerans
Excerpt: as §1, §2, §3

[8] = system: Pseudomonas aeruginosa 1937 E; assay: In vitro activity (MIC), agar dilution test
Excerpt: as §1, §2, §3

[9] = system: Pseudomonas aeruginosa 5748; assay: In vitro activity (MIC), agar dilution test
Excerpt: as §1, §2, §3

Enterobacter cloacae P99 = assay: In vitro activity (MIC), agar dilution test
Excerpt: as §1, §2, §3

[10] = system: Citrobacter freundii 1385 b; assay: In vitro activity (MIC), agar dilution test
Excerpt: as §1, §2, §3

Enterobacter cloacae 163 = assay: In vitro activity (MIC), agar dilution test
Excerpt: as §1, §2, §3

[11] = system: Acinetobacter anitratus 5I-156; assay: In vitro activity (MIC), agar dilution test; settings: Acinetobacter calcoaceticus, 5I156
Excerpt: as §1, §2, §3

Escherichia coli 5/9 = assay: In vitro activity (MIC), agar dilution test
Excerpt: as §1, §2, §3

Enterobacter strains = assay: Activity and synergism against Enterobacter strains
Excerpt: In the scope of the present invention it has been ascertained that compound A, which has hitherto not been considered as a combination partner for mecillinam, is especially well suited for such a combination.
as §1

[12] = single substance, DST agar (Oxoid), read-out: MIC

NC(=O)OC[C@@H]1[C@H](NC(=O)/C(=N\OCC(=O)O)c2csc(N)n2)C(=O)N1S(=O)(=O)O [Compound A, (2S,3S)-3-((Z)-2-(2-amino-4-thiazolyl)-2-[(carboxymethoxy)imino]acetamido)-2-[(carbamoyloxy)-methyl]-4-oxo-1-azetidinesulphonic acid]
only moderately sensitive: sensitivity of the strains (Enterobacter strains)
4 µg/mL: MIC [3, 12] | MIC [4] | MIC [6, 12]
32 µg/mL: MIC (Enterobacter cloacae 908; [12]) | MIC ([2]; MK1617, single substance, DST agar (Oxoid), read-out: MIC) | MIC (Enterobacter cloacae 163; [12])
2 µg/mL: MIC [8, 12] | MIC (Escherichia coli 5/9; [12])
8 µg/mL: MIC [1, 12] | MIC (Enterobacter cloacae 5; [12]) | MIC [5, 12] | MIC [9] | MIC [10, 12]
16 µg/mL: MIC [7, 12] | MIC (Enterobacter cloacae P99) | MIC [11, 12]

CC1(C)S[C@@H]2[C@H](/N=C/N3CCCCCC3)C(=O)N2[C@H]1C(=O)O [MEC, mecillinam]
> 256 µg/mL: MIC [1] | MIC (Enterobacter cloacae 5) | MIC (Enterobacter cloacae 908) | MIC ([2]; MK1617) | MIC [3] | MIC [4] | MIC [5] | MIC [6] | MIC [7] | MIC [8] | MIC [9] | MIC (Enterobacter cloacae P99) | MIC [10] | MIC (Enterobacter cloacae 163) | MIC [11] | MIC (Escherichia coli 5/9)
resistant: sensitivity of the strains (Enterobacter strains)
